The source of these data is patent US20210093531A1, “DERIVATIVES OF MENTHOL AND USES THEREOF” (Board of Trustees of Northern Illinois University, priority 2019, published 2021).

The test system of test [1] is trained panelists. As to the kind of experiment: time-intensity analysis of cooling, lozenge application. Type of test: in vivo. The settings on record: 4-minute window. The procedure:
In order to evaluate the potential use of menthol glycinates as […] different food, beverage and oral hygiene products, select compounds were incorporated in different application systems. A beverage model system, a lozenge and a mouthwash application were created, and time-intensity analysis was performed using trained discrimination analysis panelists. Time-Intensity (TI) is a temporal sensory method. During TI evaluations, assessors are asked to score the intensity of perception of a single attribute over consumption of the product. Compared to single point measurements, TI analysis can characterize the onset, decline and rates thereof, of particular sensory characteristics. This analysis may reveal rich information regarding the intensity of an attribute over the time domain and identify temporal perceptual differences among samples that can greatly impact the overall profile of a product. For each sample evaluation, a temporal curve is generated, based on duplication. The temporal curves for each panelist are combined to generate a combined curve for each product that is evaluated. The following distinct parameters were calculated: Imax: peak intensity or maximum observed intensity on the whole curve; […]: time point where the reaction to the stimulus is first perceived on the curve; Tmax: time position of the peak intensity on the curve; Tplateau: protraction of maximum intensity or duration of maximum intensity; Text: time point of extinction of the perception of the stimulus, defined as the position in time after the peak intensity where the measured intensity disappears (or the end of evaluation window); Iext: intensity at time of extinction or end of evaluation; R increase: slope or rate of intensity increase between […] and Tmax; R decrease: slope or rate of intensity decrease between Tmax and Text; and Area: the total area under the time-intensity curve. The formula detailed in Table 4 was employed to create the lozenge application to evaluate menthol glycinates of interest using time-intensity analysis. [table] For time-intensity (T-I) evaluation of the cooling intensity of lozenges, 9 panelists were recruited (3 male, 6 female). Panelists were trained in basic taste descriptive analysis. A sweetness reference series (intensity range 2-12) was provided to be used as cross-modality reference to aid in scaling the intensity of the cool attribute present in the lozenge samples. Panelists evaluated samples in duplicates and all samples were presented blinded and in a randomized order using a 3-digit code. Panelists were instructed to provide cooling intensity at predetermined time points throughout an evaluation window of 4 minutes. […] Evaluations were performed with at least 4 hours between them to ensure no carry over. Data analysis for generation of T-I statistics and ANOVA analysis to determine significant difference among samples was performed using R STUDIO.

Test [2] has as its system trained panelists. As to the kind of experiment: time-intensity analysis of cooling, mouthwash application. Format: in vivo. The settings on record: for Iext (cooling intensity at end of evaluation): 15 minutes after expectoration. The procedure:
In order to evaluate the potential use of menthol glycinates as […] different food, beverage and oral hygiene products, select compounds were incorporated in different application systems. A beverage model system, a lozenge and a mouthwash application were created, and time-intensity analysis was performed using trained discrimination analysis panelists. Time-Intensity (TI) is a temporal sensory method. During TI evaluations, assessors are asked to score the intensity of perception of a single attribute over consumption of the product. Compared to single point measurements, TI analysis can characterize the onset, decline and rates thereof, of particular sensory characteristics. This analysis may reveal rich information regarding the intensity of an attribute over the time domain and identify temporal perceptual differences among samples that can greatly impact the overall profile of a product. For each sample evaluation, a temporal curve is generated, based on duplication. The temporal curves for each panelist are combined to generate a combined curve for each product that is evaluated. The following distinct parameters were calculated: Imax: peak intensity or maximum observed intensity on the whole curve; […]: time point where the reaction to the stimulus is first perceived on the curve; Tmax: time position of the peak intensity on the curve; Tplateau: protraction of maximum intensity or duration of maximum intensity; Text: time point of extinction of the perception of the stimulus, defined as the position in time after the peak intensity where the measured intensity disappears (or the end of evaluation window); Iext: intensity at time of extinction or end of evaluation; R increase: slope or rate of intensity increase between […] and Tmax; R decrease: slope or rate of intensity decrease between Tmax and Text; and Area: the total area under the time-intensity curve. The formula shown in Table 8 was employed to create a mouthwash product to evaluate […] of interest using time-Intensity analysis. [table] The following test compounds were evaluated: menthol, XI-I-60, RK-2-10, XI-I-65, DK-1-50, and XI-2-73. For time-intensity (T-I) evaluation of the cooling attributes of mouthwash products, 8 panelists were recruited (2 male, 6 female). Panelists were trained in basic taste descriptive analysis. A sweetness reference series (intensity range 2-12) was provided to be used as cross-modality reference to aid in scaling the intensity of the cooling attribute present in the mouthwash samples. Panelists evaluated samples in duplicates and all sample were presented blinded and in a randomized order using a 3-digit code. Panelist evaluated 15 ml of mouthwash at a time and were instructed to rinse for 30 seconds and expectorate. Panelists were instructed to provide cooling intensities before and after expectoration. For the time before expectoration, evaluation started upon introducing the sample and every 10 seconds thereafter. After expectoration, the evaluation continued for 15 minutes and panelists provided cooling intensity ratings at predetermined times. Due to the unique nature of this product and the interest in prolonging the cooling attribute long after consumption, an additional parameter led was evaluated among samples via ANOVA. This parameter is the cooling intensity at time of extinction or in our case the end of evaluation. Data analysis for generation of T-I statistics and ANOVA analysis to determine significant difference among samples was performed using R STUDIO.

For test [3] the following is noted: estimated, relative to menthol; cited from earlier work.
Setting [4] is: after expectoration for 15 minutes (Table 9b).
Where [5] appears, read: rinse phase 30 seconds (Table 9a).

Marks after values point to notes of the source that are not given here.

With `CC(C)NCC(=O)O[C@@H]1C[C@H](C)CC[C@H]1C(C)C` [Product 7, (1R,2S,5R)-2-Isopropyl-5-methylcyclohexyl 2-(isopropylamino)acetate], in test [1], the “Tstart (time cooling first perceived)” value is recorded as “significantly delayed cooling onset”. The “Iext (cooling intensity at end of evaluation)” value (shortened to “Iext”) in test [2] is listed as “significantly higher cooling intensity”. Moreover, the AUC result in test [2] (setting [4]) is listed as “significantly higher”. In test [2] (setting [5]), the Imax entry is “trending higher” and the Rdec result is recorded as “significantly lower R decrease”.

As to `CC(C)[C@@H]1CC[C@@H](C)C[C@H]1OC(=O)CNC1CC1` [Product 12, (1R,2S,5R)-2-isopropyl-5-methylcyclohexyl 2-(cyclopropylamino)acetate], the “AUC (total area under time-intensity curve)” value in test [1] was “not significantly different than menthol”. For the same molecule, the “Iext” value in test [2] (listed as XI-1-66) is listed as “significantly higher cooling intensity”; in test [2] (listed as XI-I-65), 2.18^b. The AUC is reported as 5211.25^bc in test [2] (setting [4]) and 186.88^a in test [2] (setting [5]). Further, in test [2] (setting [4]), the I max is recorded as 13.20^ab. Besides, the Rdec in test [2] (setting [4]) is on record as −0.01^b; in test [2] (rinse phase 30 seconds (Table 9a), listed as XI-165), “significantly lower R decrease”; in test [2] (rinse phase 30 seconds (Table 9a), listed as XI-I-65) it was 0.00^b. Further, the Tmax in test [2] (setting [4]) is given as 32.50^a. Also, the Tstart in test [2] (setting [4]) is recorded as 30.00^a; in test [2] (setting [5]), 10.00^a. Besides, the Rinc is 0.03^b in test [2] (after expectoration for 15 minutes (Table 9b), listed as XI-I-65); “positive and significantly higher compared to that of menthol” in test [2] (after expectoration for 15 minutes (Table 9b), listed as XI-I-66); 0.23^a in test [2] (setting [5]).

`CC(C)[C@@H]1CC[C@@H](C)C[C@H]1C(=O)NCCc1ccccn1` [amide 19]: in test [3], the “times cooler than menthol (cooling potential)” value is “about 100 times”.

`Cc1cc2ccccc2n1CCNC(=O)[C@@H]1C[C@H](C)CC[C@H]1C(C)C` [compound 1]: in test [3], the “times cooler than menthol (cooling potential)” value was about 1000 times.

With “(1R,2S,5R)-2-Isopropyl-5-methylcyclohexyl 2-(benzyl(methyl)amino)acetate [Product 15]”, the “Iext” value in test [2] is recorded as 0.67^a. In test [2] (setting [4]), the AUC is 4082.50^ac, the I max is given as 13.50^ab, the Rdec was −0.01^b and the Tmax was 32.50^a. Further, the Tstart in test [2] (setting [4]) was 30.00^a. In test [2] (setting [5]), the AUC is on record as 179.79^a, the Rinc is given as 0.21^a and the Tstart is given as 10.00^a.

“(1R,2S,5R)-2-isopropyl-5-methylcyclohexyl 2-(cyclopropylamino)acetate [Product 12]”: in test [1], the “AUC (total area under time-intensity curve)” value is listed as 1945.31^bc, the “RDec (rate of intensity decrease)” value is 0.042^ab, the “RInc (rate of intensity increase)” value is reported as 0.042^ab and the “Tmax (time of peak intensity)” value was 206.25^a.
